Test results reported in patent publication US20140243286A1, “BROMODOMAIN LIGANDS CAPABLE OF DIMERIZING IN AN AQUEOUS SOLUTION, AND METHODS OF USING SAME” (Coferon, Inc., priority 2011, published 2014).
Read-outs that look alike come from different tables or passages of the source.

Assays:
BRD2 = BRD2 (Homo sapiens, UniProt P25440); experiment: Fluorescence anisotropy (FA) binding assay, BRD2
Description: (§1) Fluorescence Anisotropy (FA) Binding Assays.
(§2) FA assays were performed as described in Chung et al., J. Med Chem., 2011 54(11): 3827-38 except that protein concentrations were 125 nM and plates were read on a Spectramax M5 plate reader.

BRD3 = BRD3 (Homo sapiens, UniProt Q15059); experiment: Fluorescence anisotropy (FA) binding assay, BRD3
Sequence of BRD3 (Q15059 whole entry): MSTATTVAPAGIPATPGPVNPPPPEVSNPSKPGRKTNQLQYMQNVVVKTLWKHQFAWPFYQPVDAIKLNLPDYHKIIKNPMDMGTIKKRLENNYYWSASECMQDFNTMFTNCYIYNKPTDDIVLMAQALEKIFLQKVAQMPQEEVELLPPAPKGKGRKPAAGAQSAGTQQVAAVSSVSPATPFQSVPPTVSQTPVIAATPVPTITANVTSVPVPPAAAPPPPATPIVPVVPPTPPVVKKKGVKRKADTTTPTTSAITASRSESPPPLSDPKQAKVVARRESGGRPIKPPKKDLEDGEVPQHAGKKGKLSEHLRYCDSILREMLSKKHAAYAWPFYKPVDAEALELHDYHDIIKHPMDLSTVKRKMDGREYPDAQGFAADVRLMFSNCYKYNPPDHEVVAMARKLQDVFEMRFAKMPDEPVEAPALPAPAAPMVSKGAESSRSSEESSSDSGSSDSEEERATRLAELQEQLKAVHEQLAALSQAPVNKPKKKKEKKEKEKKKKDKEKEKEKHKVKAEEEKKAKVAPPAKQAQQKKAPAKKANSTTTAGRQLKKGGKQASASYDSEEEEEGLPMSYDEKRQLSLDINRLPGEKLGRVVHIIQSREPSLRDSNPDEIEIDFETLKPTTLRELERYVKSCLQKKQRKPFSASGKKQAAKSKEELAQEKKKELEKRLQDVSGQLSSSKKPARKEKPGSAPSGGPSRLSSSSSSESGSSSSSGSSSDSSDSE
Description: as §1, §2

BRD4 = BRD4 (Homo sapiens, UniProt O60885); experiment: Fluorescence anisotropy (FA) binding assay, BRD4
Description: as §1, §2

[1] = BRD2, protein 125 nM, read-out: IC50 range (FA assay) BRD2, BRD-E monomers
[2] = BRD3, protein 125 nM, read-out: IC50 range (FA assay) BRD3, BRD-E monomers
[3] = BRD4, protein 125 nM, read-out: IC50 range (FA assay) BRD4, BRD-E monomers
[4] = BRD2, protein 125 nM, read-out: IC50 range (FA assay) BRD2, BRD-N monomers
[5] = BRD3, protein 125 nM, read-out: IC50 range (FA assay) BRD3, BRD-N monomers
[6] = BRD4, protein 125 nM, read-out: IC50 range (FA assay) BRD4, BRD-N monomers

Sequence of BRD2 (P25440 whole entry): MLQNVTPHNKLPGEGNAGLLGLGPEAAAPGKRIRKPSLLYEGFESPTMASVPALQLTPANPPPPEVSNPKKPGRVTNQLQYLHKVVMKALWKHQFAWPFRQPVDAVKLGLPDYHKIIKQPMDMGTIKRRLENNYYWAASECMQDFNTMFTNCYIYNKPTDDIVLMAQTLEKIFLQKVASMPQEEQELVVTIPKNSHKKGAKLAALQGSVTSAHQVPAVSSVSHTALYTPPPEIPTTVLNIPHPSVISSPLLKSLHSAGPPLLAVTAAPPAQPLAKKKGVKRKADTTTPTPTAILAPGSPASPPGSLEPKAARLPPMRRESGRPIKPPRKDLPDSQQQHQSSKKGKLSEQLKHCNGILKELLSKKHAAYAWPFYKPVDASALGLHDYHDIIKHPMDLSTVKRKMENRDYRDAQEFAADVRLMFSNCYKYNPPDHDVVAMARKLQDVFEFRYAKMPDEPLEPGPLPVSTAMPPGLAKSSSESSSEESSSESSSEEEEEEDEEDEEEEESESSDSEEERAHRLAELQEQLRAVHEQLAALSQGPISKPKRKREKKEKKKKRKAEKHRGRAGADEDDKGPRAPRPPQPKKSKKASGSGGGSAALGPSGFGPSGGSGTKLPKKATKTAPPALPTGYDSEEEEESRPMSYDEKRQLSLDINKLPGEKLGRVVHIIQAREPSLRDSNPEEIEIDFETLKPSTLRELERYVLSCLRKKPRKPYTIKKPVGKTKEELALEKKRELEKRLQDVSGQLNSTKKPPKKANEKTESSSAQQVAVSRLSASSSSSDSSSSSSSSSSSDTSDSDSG

Row | Compound | IC50 (BRD2; [1]) | IC50 (BRD3; [2]) | IC50 (BRD4; [3]) | IC50 (BRD2; [4]) | IC50 (BRD3; [5]) | IC50 (BRD4; [6]) | also measured
1 | COc1ccc2c(c1)C(c1ccc(Cl)cc1)=N[C@@H](CC(=O)NCCNC(=O)/C=C/c1ccc(B(O)O)cc1)c1nnc(C)n1-2 [BRD-E-29, (4-((E)-3-((2-(2-((4S)-6-(4-chlorophenyl)-8-methoxy-1-methyl-4H-benzo[f][1,2,4]triazolo[4,3-a][1,4]diazepin-4-yl)acetamido)ethyl)amino)-3-oxoprop-1-en-1-yl)phenyl)boronic acid] | 0.05 to 1 µM | 0.05 to 1 µM | 0.05 to 1 µM |  |  |  | 
2 | COc1ccc2c(c1)C(c1ccc(Cl)cc1)=N[C@@H](CC(=O)NCCc1ccc(O)c(O)c1)c1nnc(C)n1-2 [BRD-N-10, (S)-2-(6-(4-chlorophenyl)-8-methoxy-1-methyl-4H-benzo[f][1,2,4]triazolo[4,3-a][1,4]diazepin-4-yl)-N-(3,4-dihydroxyphenethyl)acetamide] |  |  |  | 0.05 to 1 µM | 0.05 to 1 µM | 0.05 to 1 µM | 
3 | CCNC(=O)C[C@@H]1N=C(c2ccc(Cl)cc2)c2cc(OCC(=O)Nc3cccc(B(O)O)c3)ccc2-n2c(C)nnc21 [BRD-E-15, (S)-(3-(2-((6-(4-chlorophenyl)-4-(2-(ethylamino)-2-oxoethyl)-1-methyl-4H-benzo[f][1,2,4]triazolo[4,3-a][1,4]diazepin-8-yl)oxy)acetamido)phenyl)boronic acid] | 1 to 30 µM | 0.05 to 1 µM | 0.05 to 1 µM |  |  |  | 
4 | CCNC(=O)C[C@@H]1N=C(c2ccc(Cl)cc2)c2cc(OCCCC(=O)Nc3cccc(O)c3O)ccc2-n2c(C)nnc21 [BRD-N-21, (S)-4-((6-(4-chlorophenyl)-4-(2-(ethylamino)-2-oxoethyl)-1-methyl-4H-benzo[f][1,2,4]triazolo[4,3-a][1,4]diazepin-8-yl)oxy)-N-(2,3-dihydroxyphenyl)butanamide] |  |  |  | 1 to 30 µM | 0.05 to 1 µM | 0.05 to 1 µM | 
5 | COc1ccc2c(c1)C(c1ccc(Cl)cc1)=N[C@@H](CC(=O)NCCCCNC(=O)c1cccc(O)c1O)c1nnc(C)n1-2 [BRD-N-06, N-(4-(2-((4S)-6-(4-chlorophenyl)-8-methoxy-1-methyl-4H-benzo[f][1,2,4]triazolo[4,3-a][1,4]diazepin-4-yl)acetamido)butyl)-2,3-dihydroxybenzamide] |  |  |  |  |  |  | IC50 (BRD2): 0.05 to 1 µM; IC50 (BRD3): 1 to 30 µM; IC50 (BRD4): 0.05 to 1 µM
6 | CCNC(=O)C[C@@H]1N=C(c2ccc(Cl)cc2)c2cc(OCC(=O)Nc3ccc(B(O)O)cc3)ccc2-n2c(C)nnc21 [BRD-E-16, (S)-(4-(2-((6-(4-chlorophenyl)-4-(2-(ethylamino)-2-oxoethyl)-1-methyl-4H-benzo[f][1,2,4]triazolo[4,3-a][1,4]diazepin-8-yl)oxy)acetamido)phenyl)boronic acid] | 1 to 30 µM | 0.05 to 1 µM | 0.05 to 1 µM |  |  |  | 
7 | COc1ccc2c(c1)C(c1ccc(Cl)cc1)=N[C@@H](CC(=O)NCc1ccc(B(O)O)cc1)c1nnc(C)n1-2 [BRD-E-09, (S)-(4-((2-(6-(4-chlorophenyl)-8-methoxy-1-methyl-4H-benzo[f][1,2,4]triazolo[4,3-a][1,4]diazepin-4-yl)acetamido)methyl)phenyl)boronic acid] | 0.05 to 1 µM | 0.05 to 1 µM | 0.05 to 1 µM |  |  |  | 
8 | COc1ccc2c(c1)C(c1ccc(Cl)cc1)=N[C@@H](CC(=O)NCCCNC(=O)c1cccc(O)c1O)c1nnc(C)n1-2 [BRD-N-04, N-(3-(2-((4S)-6-(4-chlorophenyl)-8-methoxy-1-methyl-4H-benzo[f][1,2,4]triazolo[4,3-a][1,4]diazepin-4-yl)acetamido)propyl)-2,3-dihydroxybenzamide] |  |  |  |  |  |  | IC50 (BRD2): 0.05 to 1 µM; IC50 (BRD3): 0.05 to 1 µM; IC50 (BRD4): 0.05 to 1 µM
9 | CCNC(=O)C[C@@H]1N=C(c2ccc(Cl)cc2)c2cc(OCCCC(=O)Nc3ccc(O)c(O)c3)ccc2-n2c(C)nnc21 [BRD-N-20, (S)-4-((6-(4-chlorophenyl)-4-(2-(ethylamino)-2-oxoethyl)-1-methyl-4H-benzo[f][1,2,4]triazolo[4,3-a][1,4]diazepin-8-yl)oxy)-N-(3,4-dihydroxyphenyl)butanamide] |  |  |  | 0.05 to 1 µM | 0.05 to 1 µM | 0.05 to 1 µM | 
10 | CCNC(=O)C[C@@H]1N=C(c2ccc(Cl)cc2)c2cc(OCCCCNC(=O)c3cccc(B(O)O)c3)ccc2-n2c(C)nnc21 [BRD-E-25, (S)-(3-((4-((6-(4-chlorophenyl)-4-(2-(ethylamino)-2-oxoethyl)-1-methyl-4H-benzo[f][1,2,4]triazolo[4,3-a][1,4]diazepin-8-yl)oxy)butyl)carbamoyl)phenyl)boronic acid] | 1 to 30 µM | 1 to 30 µM | 1 to 30 µM |  |  |  | 
11 | CCNC(=O)C[C@@H]1N=C(c2ccc(Cl)cc2)c2cc(OCCNC(=O)c3ccc(O)c(O)c3)ccc2-n2c(C)nnc21 [BRD-N-24] |  |  |  | 0.05 to 1 µM | 0.05 to 1 µM | 1 to 30 µM | 
12 | CCNC(=O)C[C@@H]1N=C(c2ccc(Cl)cc2)c2cc(OCCNC(=O)c3ccc(B(O)O)cc3)ccc2-n2c(C)nnc21 [BRD-E-22, (S)-(4-((2-((6-(4-chlorophenyl)-4-(2-(ethylamino)-2-oxoethyl)-1-methyl-4H-benzo[f][1,2,4]triazolo[4,3-a]diazepin-8-yl)oxy)ethyl)carbamoyl)phenyl)boronic acid] | 0.05 to 1 µM | 0.05 to 1 µM | 0.05 to 1 µM |  |  |  | 
13 | COc1ccc2c(c1)C(c1ccc(Cl)cc1)=N[C@@H](CC(=O)NCCc1cccc(O)c1O)c1nnc(C)n1-2 [BRD-N-12, (S)-2-(6-(4-chlorophenyl)-8-methoxy-1-methyl-4H-benzo[f][1,2,4]triazolo[4,3-a][1,4]diazepin-4-yl)-N-(2,3-dihydroxyphenethyl)acetamide] |  |  |  | 0.05 to 1 µM | 0.05 to 1 µM | 0.05 to 1 µM | 
14 | CCNC(=O)C[C@@H]1N=C(c2ccc(Cl)cc2)c2cc(OCCCCC(=O)Nc3cccc(O)c3O)ccc2-n2c(C)nnc21 [BRD-N-23, (S)-5-((6-(4-chlorophenyl)-4-(2-(ethylamino)-2-oxoethyl)-1-methyl-4H-benzo[f][1,2,4]triazolo[4,3-a][1,4]diazepin-8-yl)oxy)-N-(2,3-dihydroxyphenyl)pentanamide] |  |  |  |  |  |  | IC50 (BRD2): 0.05 to 1 µM; IC50 (BRD3): 0.05 to 1 µM; IC50 (BRD4): 0.05 to 1 µM
15 | COc1ccc2c(c1)C(c1ccc(Cl)cc1)=N[C@@H](CC(=O)NCCCCNC(=O)c1ccc(B(O)O)cc1)c1nnc(C)n1-2 [BRD-E-05, (4-((4-(2-((4S)-6-(4-chlorophenyl)-8-methoxy-1-methyl-4H-benzo[f][1,2,4]triazolo[4,3-a][1,4]diazepin-4-yl)acetamido)butyl)carbamoyl)phenyl)boronic acid] | 0.05 to 1 µM | 0.05 to 1 µM | 0.05 to 1 µM |  |  |  | 
16 | COc1ccc2c(c1)C(c1ccc(Cl)cc1)=N[C@@H](CC(=O)NCCc1ccc(B(O)O)cc1)c1nnc(C)n1-2 [BRD-E-13, (S)-(4-(2-(2-(6-(4-chlorophenyl)-8-methoxy-1-methyl-4H-benzo[f][1,2,4]triazolo[4,3-a][1,4]diazepin-4-yl)acetamido)ethyl)phenyl)boronic acid] | 1 to 30 µM | 0.05 to 1 µM | 0.05 to 1 µM |  |  |  | 
17 | COc1ccc2c(c1)C(c1ccc(Cl)cc1)=N[C@@H](CC(=O)NCCCCCNC(=O)c1cccc(O)c1O)c1nnc(C)n1-2 [BRD-N-08, N-(5-(2-((4S)-6-(4-chlorophenyl)-8-methoxy-1-methyl-4H-benzo[f][1,2,4]triazolo[4,3-a][1,4]diazepin-4-yl)acetamido)pentyl)-2,3-dihydroxybenzamide] |  |  |  | 0.05 to 1 µM | 0.05 to 1 µM | 0.05 to 1 µM | 
18 | CCNC(=O)C[C@@H]1N=C(c2ccc(Cl)cc2)c2cc(OCCCC(=O)Nc3cccc(B(O)O)c3)ccc2-n2c(C)nnc21 [BRD-E-19] | 0.05 to 1 µM | 0.05 to 1 µM | 0.05 to 1 µM |  |  |  | 
19 | COc1ccc2c(c1)C(c1ccc(Cl)cc1)=N[C@@H](CC(=O)NCCCCCNC(=O)c1ccc(O)c(O)c1)c1nnc(C)n1-2 [BRD-N-07, N-(5-(2-((4S)-6-(4-chlorophenyl)-8-methoxy-1-methyl-4H-benzo[f][1,2,4]triazolo[4,3-a][1,4]diazepin-4-yl)acetamido)pentyl)-3,4-dihydroxybenzamide] |  |  |  | 0.05 to 1 µM | 0.05 to 1 µM | 0.05 to 1 µM | 
20 | COc1ccc2c(c1)C(c1ccc(Cl)cc1)=N[C@@H](CC(=O)NCCCNC(=O)c1cccc(B(O)O)c1)c1nnc(C)n1-2 [BRD-E-04, (3-((3-(2-((4S)-6-(4-chlorophenyl)-8-methoxy-1-methyl-4H-benzo[f][1,2,4]triazolo[4,3-a][1,4]diazepin-4-yl)acetamido)propyl)carbamoyl)phenyl)-boronic acid] | 0.05 to 1 µM | 0.05 to 1 µM | 0.05 to 1 µM |  |  |  | 
21 | CCNC(=O)C[C@@H]1N=C(c2ccc(Cl)cc2)c2cc(OCCCNC(=O)c3cccc(O)c3O)ccc2-n2c(C)nnc21 [BRD-N-27, (S)—N-(3-((6-(4-chlorophenyl)-4-(2-(ethylamino)-2-oxoethyl)-1-methyl-4H-benzo[f][1,2,4]triazolo[4,3-a][1,4]diazepin-8-yl)oxy)propyl)-2,3-dihydroxybenzamide] |  |  |  | 1 to 30 µM | 0.05 to 1 µM | 0.05 to 1 µM | 
22 | COc1ccc2c(c1)C(c1ccc(Cl)cc1)=N[C@@H](CC(=O)NCCNC(=O)c1cccc(O)c1O)c1nnc(C)n1-2 [BRD-N-02, N-(2-(2-((4S)-6-(4-chlorophenyl)-8-methoxy-1-methyl-4H-benzo[f][1,2,4]triazolo[4,3-a][1,4]diazepin-4-yl)acetamido)ethyl)-2,3-dihydroxybenzamide] |  |  |  | 0.05 to 1 µM | 0.05 to 1 µM | 0.05 to 1 µM | 
